Assays:
Assay type in all cases: in vivo
[1] = tested on: diamondback moth (Plutella xylostella); experiment: Insecticidal effect on diamondback moth (Test Example 1); conditions: diamondback moth; judged by the criterion of Test Example 1
How it was run: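 Eggs laid by adult moths on Chinese cabbage seedlings, which were immersed in test solution, air-dried and kept at 25 °C. Hatched insects counted 6 days after immersion and mortality calculated, with effect graded by criterion; triplicate groups of 10 insects.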

[2] = tested on: common cutworm (Spodoptera Litura); experiment: Insecticidal effect on common cutworm (Test Example 2); conditions: 500 ppm, cabbage leaf dip, second-instar larvae of common cutworm, 8 days after inoculation, 25° C.
How it was run: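 After the treated material air-dries, it goes into a dish, second-instar larvae are added, and the dish is closed. Incubation runs at 25° C. On day eight, dead and living larvae are scored, and the calculated mortality is rated on an effect scale.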

[3] = tested on: rice leafroller (Cnaphalocrocis medinalis); experiment: Insecticidal effect on rice leafroller (Test Example 3); conditions: 500 ppm, rice lamina dip, third-instar larvae of rice leafroller, 4 days after inoculation, 25° C., humidity 70%
How it was run: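 Groups of 10 third-instar larvae, in triplicate, are placed on air-dried lamina resting on wet filter paper. Incubation runs four days at 25° C with 70% humidity before survivors and dead are tallied.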

Structure (SMILES)	Insecticidal effect (Test Example 1), judged from mortality [1]	Insecticidal effect (Test Example 2), judged from mortality [2]	Insecticidal effect (Test Example 3), judged from mortality [3]
Cc1cc(C(F)(F)C(F)(F)F)ccc1NC(=O)c1cccc(Cl)c1C(=O)NC(C)CF (stereo not drawn) [compound 1651]	A (100)	A (100)	A (100)
Cc1cc(C(F)(F)C(F)(F)F)ccc1NC(=O)c1cccc(Cl)c1C(=O)NC(C)CBr (stereo not drawn) [compound 1652]	A (100)	A (100)	A (100)
Cc1cc(C(F)(F)C(F)(F)F)c(Cl)cc1NC(=O)c1cccc(I)c1C(=O)NC(C)C [compound 1653]	A (100)	A (100)	A (100)
Cc1cc(C(F)(F)C(F)(F)F)c(Cl)cc1NC(=O)c1cccc(I)c1C(=O)NC(C)(C)C [compound 1654]	A (100)	A (100)	A (100)
CCc1cc(C(F)(C(F)(F)F)C(F)(F)F)ccc1NC(=O)c1cccc(I)c1C(=O)NC(C)C [compound 1714]	A (100)	A (100)	A (100)
COc1cc(C(F)(C(F)(F)F)C(F)(F)F)ccc1NC(=O)c1cccc(I)c1C(=O)NC(C)C [compound 1715]	A (100)	A (100)	A (100)
Cc1cc(C(F)(C(F)(F)F)C(F)(F)F)cc(C)c1NC(=O)c1cccc(I)c1C(=O)NC(C)C [compound 1716]	A (100)	A (100)	A (100)
Cc1cc(C(F)(F)C(F)(F)F)cc(C)c1NC(=O)c1cccc(I)c1C(=O)NC(C)C [compound 1717]	A (100)	A (100)	A (100)
CC(C)NC(=O)c1c(I)cccc1C(=O)Nc1ccc(C(F)(C(F)(F)F)C(F)(F)F)cc1Cl [compound 1722]	A (100)	A (100)	A (100)
CC(C)(C)NC(=O)c1c(I)cccc1C(=O)Nc1ccc(C(F)(C(F)(F)F)C(F)(F)F)cc1Cl [compound 1723]	A (100)	A (100)	A (100)
CC(C)NC(=O)c1c(I)cccc1C(=O)Nc1ccc2c(c1Cl)OC(F)C(F)(F)O2 (stereo not drawn) [compound 1733]	A (100)	A (100)	A (100)
CON=C(C)c1ccc(NC(=O)c2cccc(I)c2C(=O)NC(C)C)cc1 [compound 1737]	A (100)	C (89-80)	A (100)
CC(C)(C)NC(=O)c1c(I)cccc1C(=O)Nc1ccc(Cl)c2c1OC(F)(F)O2 [compound 1747]	A (100)	C (89-80)	A (100)
CC(C)NC(=O)c1c(I)cccc1C(=O)Nc1ccc2nc(C(C)C)sc2c1 [compound 1764]	A (100)	A (100)	A (100)
CC(C)NC(=O)c1c(I)cccc1C(=O)Nc1ccc(-c2csc(C(F)(F)F)n2)cc1 [compound 1765]	A (100)	A (100)	A (100)
CSc1cc(NC(=O)c2cccc(I)c2C(=O)NC(C)C)ccc1C(F)(C(F)(F)F)C(F)(F)F [compound 1766]	A (100)	A (100)	A (100)
Cc1cc(C(F)(C(F)(F)F)C(F)(F)F)ccc1NC(=O)c1cccc(I)c1C(=O)NC(C)c1ccccn1 (stereo not drawn) [compound 1773]	A (100)	A (100)	A (100)
Cc1cc(C(F)(F)C(F)(F)F)ccc1NC(=O)c1cccc(I)c1C(=O)NC(C)c1ccccn1 (stereo not drawn) [compound 1777]	A (100)	A (100)	A (100)
Cc1cc(C(F)(C(F)(F)F)C(F)(F)F)ccc1NC(=O)c1cccc(I)c1C(=O)NC(C)c1ccco1 (stereo not drawn) [compound 1799]	A (100)	A (100)	A (100)
Cc1cc(C(F)(C(F)(F)F)C(F)(F)F)ccc1NC(=O)c1cccc(I)c1C(=O)NC(C)c1cccs1 (stereo not drawn) [compound 1800]	A (100)	A (100)	A (100)
Cc1cc(C(F)(F)C(F)(F)F)ccc1NC(=O)c1cccc(C(F)(F)F)c1C(=O)NC(C)C [compound 1801]	A (100)	A (100)	A (100)
Cc1cc(C(F)(F)C(F)(F)F)ccc1NC(=O)c1cccc([S+]([O-])C(F)(F)F)c1C(=O)NC(C)C (stereo not drawn) [compound 1803]	A (100)	A (100)	A (100)
